Earlier results, collected in US8840932B2, “Antiseptic compositions and methods” (priority 2002, dated 2014).

Conditions: 25° C.

Compound: II [elemental iodine, iodine]
- solubility in water: 0.03 wt-%
